The record followed here is patent US8697708B2, “Azabenzothiazole compounds, compositions and methods of use” (F. Hoffmann-La Roche AG, priority 2010, dated 2014).

As usually defined, the Ki is a dissociation constant, usually derived from enzyme kinetics or from competition with a known ligand. Lower therefore signals higher affinity.

Counter-ions that a name gives are not always drawn.

Chain of TYK2 (P29597 897-1176): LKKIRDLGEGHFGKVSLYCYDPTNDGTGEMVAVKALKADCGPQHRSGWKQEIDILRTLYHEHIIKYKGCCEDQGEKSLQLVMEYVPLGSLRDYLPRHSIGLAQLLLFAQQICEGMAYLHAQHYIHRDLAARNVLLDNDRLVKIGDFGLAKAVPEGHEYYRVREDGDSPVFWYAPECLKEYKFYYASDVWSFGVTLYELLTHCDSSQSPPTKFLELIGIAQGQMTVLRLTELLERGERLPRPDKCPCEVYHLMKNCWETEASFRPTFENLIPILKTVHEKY

In this assay the target is TYK2 (Homo sapiens (Human), UniProt P29597). In words: JAK1, JAK2 and TYK2 Inhibition Assay Protocol (Example A): TYK2 kinase domain, Caliper LabChip peptide phosphorylation. It is filed as biochemical. The following applies: isolated TYK2 kinase domain, 1 nM enzyme, 25 μM ATP, Morrison tight binding model. As to the method:
The activity of the isolated JAK1, JAK2 or TYK2 kinase domain was measured by monitoring phosphorylation of a peptide derived from JAK3 (Val-Ala-Leu-Val-Asp-Gly-Tyr-Phe-Arg-Leu-Thr-Thr) fluorescently labeled on the N-terminus with 5-carboxyfluorescein using the Caliper LabChip technology (Caliper Life Sciences, Hopkinton, Mass.). […] Reactions were incubated at 22° C. in 384-well polypropylene microtiter plates for 30 minutes and then stopped by addition of 25 μL of an EDTA containing solution (100 mM Hepes pH 7.2, 0.015% Brij-35, 150 mM EDTA), resulting in a final EDTA concentration of 50 mM. After termination of the kinase reaction, the proportion of phosphorylated product was determined as a fraction of total peptide substrate using the Caliper LabChip 3000 according to the manufacturer's specifications. Ki values were then determined using the Morrison tight binding model. Morrison, J. F., Biochim. Biophys. Acta. 185:269-296 (1969); William, J. W. and Morrison, J. F., Meth. Enzymol., 63:437-467 (1979).
With `OCc1ccnc(Nc2nccc3nc(-c4c(Cl)cccc4Cl)sc23)c1` [Example 18, (2-(2-(2,6-dichlorophenyl)thiazolo[5,4-c]pyridin-4-ylamino)pyridin-4-yl)methanol], the Ki stood at 0.3 nM. That is a sub-nanomolar value.
As for `N#Cc1cccc(F)c1-c1nc2c(C#N)cnc(Nc3cc(N)ncn3)c2s1` [Example 224, 4-(6-aminopyrimidin-4-ylamino)-2-(2-cyano-6-fluorophenyl) thiazolo[5,4-c] pyridine-7-carbonitrile], the figure is 0.3 nM; as for `Cc1cc(Nc2nccc3nc(-c4c(Cl)cc(CO)cc4Cl)sc23)ncn1` [Example 22, {3,5-Dichloro-4-[4-(6-methyl-pyrimidin-4-ylamino)-thiazolo[5,4-c]pyridin-2-yl]-phenyl}-methanol], 1 nM; as for `O=C(Nc1nccc2nc(-c3c(F)cccc3Cl)sc12)NC1CC1` [Example 16, 1-(2-(2-Chloro-6-fluorophenyl)thiazolo[5,4-c]pyridin-4-yl)-3-cyclopropylurea], 1.4 nM.
Turning to `Cc1cc(Nc2nccc3nc(-c4c(C#N)cc(C#N)cc4C#N)sc23)nc(C)n1` [Example 227, 2-(4-(2,6-dimethylpyrimidin-4-ylamino)thiazolo[5,4-c]pyridin-2-yl)benzene-1,3,5-tricarbonitrile], the affinity corresponds to a Ki of 0.8 nM.
To `N#Cc1cc(Cl)c(-c2nc3c(F)cnc(NC(=O)C4CC4)c3s2)c(Cl)c1` [Example 213, Cyclopropane-carboxylic acid [2-(2,6-dichloro-4-cyano-phenyl)-7-fluorothiazolo[5,4-c]pyridin-4-yl]-amide] belongs 1.5 nM.
As to `O=C(Nc1ncnc2nc(-c3c(Cl)cccc3Cl)sc12)C1CC1` [Example 24, N-(2-(2,6-dichlorophenyl)thiazolo[4,5-d]pyrimidin-7-yl)cyclopropanecarboxamide], the affinity corresponds to a Ki of 6.2 nM.
Take `CCc1cc(Nc2nccc3nc(-c4c(Cl)cc(C(N)=O)cc4Cl)sc23)ncn1` [Example 129, 3,5-Dichloro-4-[4-(6-ethylpyrimidin-4-ylamino)thiazolo[5,4-c]pyridin-2-yl]-benzamide]: the Ki is 1.6 nM. Against the preceding molecule, the Ki is about 3.9-fold lower.
As for `Cc1cc(Nc2nccc3nc(-c4ccccc4Cl)sc23)nc(C)n1` [Example 56, 2-(2-chlorophenyl)-N-(2,6-dimethylpyrimidin-4-yl)thiazolo[5,4-c]pyridin-4-amine], the figure is 8.6 nM; as for `N#Cc1cnc(Nc2cc(N)ncn2)c2sc(-c3c(F)cccc3Cl)nc12` [Example 223, 4-(6-aminopyrimidin-4-ylamino)-2-(2-chloro-6-fluorophenyl) thiazolo[5,4-c] pyridine-7-carbonitrile], 0.4 nM; as for `O=C(CO)Nc1nccc2nc(-c3c(Cl)cccc3Cl)sc12` [Example 10, N-(2-(2,6-Dichlorophenyl)thiazolo[5,4-c]pyridin-4-yl)-2-hydroxyacetamide], 23 nM.
Regarding `Cc1nc(CO)cc(Nc2nccc3nc(-c4c(Cl)cccc4C#N)sc23)n1` [Example 236, 3-Chloro-2-[4-(6-hydroxy-methyl-2-methyl-pyrimidin-4-ylamino)-thiazolo[5,4-c]pyridin-2-yl]-benzonitrile hydrochloride salt], the affinity corresponds to a Ki of 0.5 nM.
`Cc1cc(Nc2nccc3nc(-c4c(Cl)cc(C5CC5)cc4Cl)sc23)ncn1` [Example 138, [2-(2,6-Dichloro-4-cyclopropylphenyl)thiazolo[5,4-c]pyridin-4-yl]-(6-methylpyrimidin-4-yl)-amine] registered a Ki of 4.1 nM. This Ki is about 8.2-fold higher than that of the molecule before.
`O=C(Nc1nccc2nc(-c3c(Cl)cccc3Cl)sc12)C1CC1` [Example 2, N-(2-(2,6-Dichlorophenyl)thiazolo[5,4-c]pyridin-4-yl)cyclopropanecarboxamide]: the Ki stood at 0.5 nM. Against the preceding molecule, the Ki is about 8.2-fold lower.
